Results from patent US20240317744A1, “Bicyclic Ureas As Kinase Inhibitors” (Incyte Corporation, priority 2023, published 2024).

How the values were obtained:
[1] = target: T1, pseudo-kinase domain (JH2, amino-acids 536-812) of human Wild Type JAK2 (Homo sapiens, UniProt O60674, F794H/W659A/W777A); assay: JAK2 LanthaScreen JH2-WT Binding Assay; details: JAK2 JH2-WT 0.145 nM, 50 nM tracer, 1 hour at 25° C.; read-out: JH2 BIND WT
T1 construct: pseudo-kinase domain (JH2, amino-acids 536-812 with 3 surface mutations W659A, W777A, F794H); His (C); purchased BPS Bioscience 79463; host or cells: baculovirus expression system
T1 sequence (O60674 536-812 W659A/W777A/F794H): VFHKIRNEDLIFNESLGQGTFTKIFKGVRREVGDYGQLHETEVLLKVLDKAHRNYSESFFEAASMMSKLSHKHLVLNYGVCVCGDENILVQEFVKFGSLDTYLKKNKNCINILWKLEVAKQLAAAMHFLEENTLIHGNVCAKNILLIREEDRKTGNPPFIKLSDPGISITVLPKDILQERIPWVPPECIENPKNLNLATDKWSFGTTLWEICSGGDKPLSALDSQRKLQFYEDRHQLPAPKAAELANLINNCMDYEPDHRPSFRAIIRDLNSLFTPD
Procedure, shortened: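 TR-FRET tracer displacement: IC50 from four-parameter dose-response fit. Reaction: compound, 0.145 nM biotinylated JH2 protein from baculovirus, 0.25 nM streptavidin-Tb and 50 nM tracer, 1 h at 25° C, 50 mM Tris pH 7.5 buffer. 2 mM ATP gave non-specific binding.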

[2] = target: T2, pseudo-kinase domain (JH2, amino-acids 536-812) of human V617F mutant JAK2 (Homo sapiens, UniProt O60674, F794H/V617F/W659A/W777A); assay: JAK2 LanthaScreen JH2-V617F Binding Assay; details: JAK2 JH2-V617F 0.26 nM, 50 nM tracer, 1 hour at 25° C.; read-out: JH2 BIND V617F
T2 construct: pseudo-kinase domain (JH2, amino-acids 536-812 with 3 surface mutations W659A, W777A, F794H); His (C); purchased BPS Bioscience 79498; host or cells: baculovirus expression system
T2 sequence (O60674 536-812 V617F/W659A/W777A/F794H): as the sequence (O60674 536-812 W659A/W777A/F794H) above, with V82F counted along it
Procedure, shortened: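 Biotinylated His-Avi-tagged JH2 protein was baculovirus-expressed and used at 0.26 nM. It was incubated with compound, 50 nM fluorescent JH2 tracer and 0.25 nM streptavidin-Tb for 1 h at 25 °C in pH 7.5 Tris buffer with MgCl2, BSA, DTT. Non-specific binding was defined with 2 mM ATP. IC50 came from four-parameter fits of TR-FRET signal.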

[3] = target: catalytic domain (JH1, amino acids 808-1132) of human JAK2 (Homo sapiens, UniProt O60674); assay: JAK2 HTRF Enzyme Activity Assay; type: biochemical; details: ATP 30 µM, 60 minutes at 25° C.; read-out: V617F ENZ 30 UM
catalytic domain (JH1, amino acids 808-1132) of human JAK2, sequence (O60674 808-1132 limits assumed): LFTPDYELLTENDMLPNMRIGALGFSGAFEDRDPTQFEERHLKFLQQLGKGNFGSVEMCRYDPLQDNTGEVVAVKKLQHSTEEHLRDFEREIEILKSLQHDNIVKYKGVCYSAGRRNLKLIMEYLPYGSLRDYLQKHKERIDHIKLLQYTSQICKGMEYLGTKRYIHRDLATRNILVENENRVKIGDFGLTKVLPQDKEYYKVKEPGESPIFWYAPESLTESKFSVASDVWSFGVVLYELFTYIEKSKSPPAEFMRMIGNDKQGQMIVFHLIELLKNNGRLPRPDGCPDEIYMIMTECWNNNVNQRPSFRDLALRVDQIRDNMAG

[4] = target: T3, catalytic domain (JH1, amino acids 826-1132) of human JAK2 (Homo sapiens, UniProt O60674); assay: JAK2 LanthaScreen JH1 Binding Assay; details: JAK2 JH1 1.5 nM, 50 nM tracer, 2 hours at 25° C.; read-out: JH1 BIND
T3 construct: catalytic domain (JH1, amino acids 826-1132) of human JAK2; FLAG (N); biotin (biotinylated); purchased Carna Biosciences 08-445-20N; host or cells: baculovirus expression system
T3 sequence (O60674 826-1132): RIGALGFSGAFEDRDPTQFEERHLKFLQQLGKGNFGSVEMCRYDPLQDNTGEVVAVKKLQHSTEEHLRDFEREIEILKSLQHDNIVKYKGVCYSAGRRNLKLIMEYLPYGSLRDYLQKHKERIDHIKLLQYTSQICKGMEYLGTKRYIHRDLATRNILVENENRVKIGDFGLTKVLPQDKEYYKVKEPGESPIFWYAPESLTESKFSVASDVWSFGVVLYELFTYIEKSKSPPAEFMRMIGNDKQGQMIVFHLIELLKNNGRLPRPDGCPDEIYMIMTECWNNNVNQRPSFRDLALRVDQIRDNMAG
Procedure, shortened: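 FLAG-tagged, biotinylated JAK2 JH1 (aa 826-1132, baculovirus-expressed; 1.5 nM) incubated 2 h at 25° C with compounds, 50 nM fluorescent tracer and 0.5 nM Streptavidin-Tb in Tris pH 7.5 buffer with MgCl2, Brij-35, BSA, EGTA, glycerol, DTT. Nonspecific binding defined with 2 mM ATP; TR-FRET IC50 from four-parameter fit.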

| Structure (SMILES) | IC50 [1] [nM] | IC50 [2] [nM] | IC50 [3] [nM] | IC50 [4] [nM] |
| --- | --- | --- | --- | --- |
| [2H]C([2H])([2H])n1c(=O)n([C@@H]2CC[C@@H](NC(=O)OC)C2)c2cc(Nc3cccc(C4CC4)n3)ncc21 [Example 50, Methyl ((1R,3R)-3-(6-((6-cyclopropylpyridin-2-yl)amino)-3-(methyl-d3)-2-oxo-2,3-dihydro-1H-imidazo[4,5-c]pyridin-1-yl)cyclopentyl)carbamate] | ≤ 10 | 10 to 100 | > 1000 | > 1000 |
| COC(=O)N[C@@H]1CC[C@@H](n2c(=O)n(C)c3cnc(Nc4cc(-c5cnn(C)c5)cc(-c5cccc(C#N)c5)n4)cc32)C1 [Example 51, Methyl ((1R,3R)-3-(6-((6-(3-cyanophenyl)-4-(1-methyl-1H-pyrazol-4-yl)pyridin-2-yl)amino)-3-methyl-2-oxo-2,3-dihydro-1H-imidazo[4,5-c]pyridin-1-yl)cyclopentyl)carbamate] | ≤ 10 | 10 to 100 | > 1000 | > 1000 |
| [2H]C([2H])([2H])n1c(=O)n([C@@H]2CC[C@@H](NC(=O)OC)C2)c2cc(Nc3cc(C(=O)N4CCOCC4)c4cccc(C(F)(F)F)c4n3)ncc21 [Example 52, Methyl ((1R,3R)-3-(3-(methyl-d3)-6-((4-(morpholine-4-carbonyl)-8-(trifluoromethyl)quinolin-2-yl)amino)-2-oxo-2,3-dihydro-1H-imidazo[4,5-c]pyridin-1-yl)cyclopentyl)carbamate] | ≤ 10 | ≤ 10 | 500 to 1000 | 500 to 1000 |
| COC(=O)Nc1cc(Nc2cc3c(cn2)n(C)c(=O)n3[C@@H]2CC[C@@H](NC(=O)OC)C2)cc(-c2cnn(C)c2)c1 [Example 53, Methyl ((1R,3R)-3-(6-((3-((methoxycarbonyl)amino)-5-(1-methyl-1H-pyrazol-4-yl)phenyl)amino)-3-methyl-2-oxo-2,3-dihydro-1H-imidazo[4,5-c]pyridin-1-yl)cyclopentyl)carbamate] | ≤ 10 | 10 to 100 | > 1000 | > 1000 |
| [2H]C([2H])([2H])n1c(=O)n([C@@H]2CC[C@@H](NC(=O)OC)C2)c2cc(Nc3ccc4ncc(C5CC5)n4n3)ncc21 [Example 54, Methyl ((1R,3R)-3-(6-((3-cyclopropylimidazo[1,2-b]pyridazin-6-yl)amino)-3-(methyl-d3)-2-oxo-2,3-dihydro-1H-imidazo[4,5-c]pyridin-1-yl)cyclopentyl)carbamate] | ≤ 10 | ≤ 10 | > 1000 | > 1000 |
| COC(=O)N[C@@H]1CC[C@@H](n2c(=O)n(C)c3cnc(Nc4cc(NC(=O)OC5CC5)cc(OC)c4)cc32)C1 [Example 55, Methyl ((1R,3R)-3-(6-((3-((cyclopropoxycarbonyl)amino)-5-methoxyphenyl)amino)-3-methyl-2-oxo-2,3-dihydro-1H-imidazo[4,5-c]pyridin-1-yl)cyclopentyl)carbamate] | ≤ 10 | 10 to 100 | > 1000 | > 1000 |
| COC(=O)N[C@@H]1CC[C@@H](n2c(=O)n(C)c3cnc(Nc4cc(NC(=O)OC5CCC5)cc(-c5cnn(C)c5)c4)cc32)C1 [Example 56, Methyl ((1R,3R)-3-(6-((3-((cyclobutoxycarbonyl)amino)-5-(1-methyl-1H-pyrazol-4-yl)phenyl)amino)-3-methyl-2-oxo-2,3-dihydro-1H-imidazo[4,5-c]pyridin-1-yl)cyclopentyl)carbamate] | ≤ 10 | ≤ 10 | > 1000 | > 1000 |
| COC(=O)N[C@@H]1CC[C@@H](n2c(=O)n(C)c3cnc(Nc4cc(NC(=O)C5CC5)cc(-c5cnn(C)c5)c4)cc32)C1 [Example 57, Methyl ((1R,3R)-3-(6-((3-(cyclopropanecarboxamido)-5-(1-methyl-1H-pyrazol-4-yl)phenyl)amino)-3-methyl-2-oxo-2,3-dihydro-1H-imidazo[4,5-c]pyridin-1-yl)cyclopentyl)carbamate] | ≤ 10 | ≤ 10 | > 1000 | > 1000 |
| [2H]C([2H])([2H])n1c(=O)n([C@@H]2CC[C@@H](NC(=O)OC)C2)c2cc(Nc3ccc4cccc(C5(C)CC5)c4n3)ncc21 [Example 58, Methyl ((1R,3R)-3-(3-(methyl-d3)-6-((8-(1-methylcyclopropyl)quinolin-2-yl)amino)-2-oxo-2,3-dihydro-1H-imidazo[4,5-c]pyridin-1-yl)cyclopentyl)carbamate] | ≤ 10 | ≤ 10 | > 1000 | > 1000 |
| [2H]C([2H])([2H])n1cc(-c2cnc3ccc(Nc4cc5c(cn4)n(C)c(=O)n5[C@@H]4CC[C@@H](NC(=O)OC)C4)nn23)c(F)n1 [Example 59, Methyl ((1R,3R)-3-(6-((3-(3-fluoro-1-(methyl-d3)-1H-pyrazol-4-yl)imidazo[1,2-b]pyridazin-6-yl)amino)-3-methyl-2-oxo-2,3-dihydro-1H-imidazo[4,5-c]pyridin-1-yl)cyclopentyl)carbamate] | ≤ 10 | ≤ 10 | > 1000 | > 1000 |
| Cn1cc(-c2cc(NC(=O)OC3CCC3)cc(Nc3cc4c(cn3)n(C)c(=O)n4C3CCCC3)c2)cn1 [Example 60, Cyclobutyl (3-((1-cyclopentyl-3-methyl-2-oxo-2,3-dihydro-1H-imidazo[4,5-c]pyridin-6-yl)amino)-5-(1-methyl-1H-pyrazol-4-yl)phenyl)carbamate] | 10 to 100 | 10 to 100 | > 1000 | > 1000 |
| Cn1c(=O)n(C2CCCC2)c2cc(Nc3cc(NC(=O)OC4CCC4)cc(-c4cnn(C5CC5)c4)c3)ncc21 [Example 61, Cyclobutyl (3-((1-cyclopentyl-3-methyl-2-oxo-2,3-dihydro-1H-imidazo[4,5-c]pyridin-6-yl)amino)-5-(1-cyclopropyl-1H-pyrazol-4-yl)phenyl)carbamate] | 10 to 100 | 100 to 500 | > 1000 | > 1000 |
| Cn1c(=O)n(C2CCOC2)c2cc(Nc3cc(NC(=O)OC4CCC4)cc(-c4cnn(C5CC5)c4)c3)ncc21 (stereo not drawn) [Example 62, Cyclobutyl (3-(1-cyclopropyl-1H-pyrazol-4-yl)-5-((3-methyl-2-oxo-1-(tetrahydrofuran-3-yl)-2,3-dihydro-1H-imidazo[4,5-c]pyridin-6-yl)amino)phenyl)carbamate] | 100 to 500 | 100 to 500 | > 1000 | > 1000 |
| [2H]C([2H])([2H])n1c(=O)n([C@@H]2CC[C@@H](NC(=O)OC)C2)c2cc(Nc3cc(COC4CCC4)cc(-c4ccc5c(c4)OCCO5)n3)ncc21 [Example 63, Methyl ((1R,3R)-3-(6-((4-(cyclobutoxymethyl)-6-(2,3-dihydrobenzo[b][1,4]dioxin-6-yl)pyridin-2-yl)amino)-3-(methyl-d3)-2-oxo-2,3-dihydro-1H-imidazo[4,5-c]pyridin-1-yl)cyclopentyl)carbamate] | ≤ 10 | 10 to 100 | > 1000 | > 1000 |
| COC(=O)N[C@@H]1CC[C@@H](n2c(=O)n(C)c3cnc(Nc4cccc(N5CCC(N)C5)n4)cc32)C1 (stereo partly drawn) [Example 64, Methyl ((1R,3R)-3-(6-((6-(3-aminopyrrolidin-1-yl)pyridin-2-yl)amino)-3-methyl-2-oxo-2,3-dihydro-1H-imidazo[4,5-c]pyridin-1-yl)cyclopentyl)carbamate] | 10 to 100 | 10 to 100 | > 1000 | > 1000 |
